Results as given in patent US20120114639A1, “COMPOSITIONS AND METHODS FOR INHIBITING VIRAL AND/OR BACTERIAL INFECTIONS” (priority 2010, published 2012).

How the values were obtained:
[1] = test system: p-EGFR, p-KGFR and downstream effector p-ERK1/2; assay: EGFR and KGFR signal activation, phospho-protein immunoblot in serum-starved HaCaT cells; assay type: cell-based, human; settings: 10 minutes ligand exposure; 100 nM PD168393, 1 μM PD173074, 100 μM genistein, 100 μM daidzein, 600 nM cetuximab
Method: FIG. 6. […] (A-B) Immunoblot of p-EGFR, p-KGFR and downstream effector p-ERK1/2 following 10 minutes ligand exposure (listed at the left of each blot: EGF, KGF, HPV16 PsV; lane 2) in serum-starved HaCaT cells. Mock exposed cells were negative controls (lane 1); ligand controls included 10 ng/ml EGF and 10 ng/ml KGF exposure (10 minutes). […] Actin is detected as a loading control. (C-D) Immunoblot of nuclear cell fractions and confocal microscopy localization of p-ERK1/2 following EGF and HPV16 exposure in serum-starved HaCaT cells at indicated times post-exposure. (C) Immunoblot for p-ERK1/2 in nuclear fractions from exposed cells. (D) Immunofluorescent confocal microscopy for localization of p-ERK1/2 (red) in PsV exposed cells. DAPI was used as a nuclear marker and was pseudocolored green to facilitate efficient co-localization of p-ERK1/2 in the nucleus. Parameters of lasers intensities were kept constant during the imaging.
Subconfluent HaCaT cells were serum-starved for 3-4 hours in Tyrode's buffer containing 0.05% BSA. After adding ˜100 vge/cell HPV16 PsV, 10 ng/ml EGF or 10 ng/ml KFG, cells were incubated at 37° C. for 10 minutes before transferring to ice and solubilizing cells with RIPA buffer. In some experiments cells were incubated with various inhibitors in Tyrode's buffer for 45 minutes and after Tyrode's washes, were incubated with virus as above in the presence of inhibitors. Lysates were clarified, mixed with Laemmli buffer and boiled for five minutes prior to SDS-PAGE Tmmunoblot was performed with various monoclonal and polyclonal antibodies: p-EGFR, p-KGFR (p-FGFR2b), p-ERK, actin. Nuclear fractionation was performed for detection of p-ERK movement into the nucleus. HaCaT cells were starved 4 h in Tyrode's solution containing 0.05% BSA, then exposed to HPV or EGF for various times. Cells were solubilized with NP40 lysis buffer and centrifuged. The pellet was incubated with nuclear extraction buffer. Following incubation on ice for one hour, the extract was clarified and the supernatant subjected to SDS-PAGE and immunoblot for analysis of p-ERK content.

HPV16 [2] = assay: HPV16 PsV infection of HaCaT cells, luciferase assay; assay type: cell-based, human papillomavirus; settings: for block of HPV16 infection / reduction of infectivity: HaCaT in CM, 24 hours in presence of inhibitor, 1 μM AG1478, 100 nM PD168393, 100 μM genistein, 1 μM PD173074, 100-600 nM cetuximab, 100 vge/cell; for visible toxicity in dose-response analysis: HaCaT cells, dose-response of infection inhibition; for IC50: Human papillomavirus 16, HaCaT, read-out: IC50 of HPV16 infection inhibition; for restoration of HPV16 infectivity in SFM by added factor: serum-starved HaCaT, HPV16 bound in SFM, 24 hours in SFM plus factor, compared to CM
Method: FIG. 2. […] (A, B) Immunoblot for syndecan-1 (polyclonal syndecan-1 Ab) after 24 hours at 37° C. in CM (A) or post starvation in SFM and after six hours at 37° C. in Tyrode's Buffer (B); immunoblot for HPV16 L1 released into CM post virus binding for indicated times (C) or 24 hours (E). […] Cells were untreated (U) or pre-treated with BM or MM for one hour, then exposed to HPV16 PsV in the presence of inhibitors in CM. Infection was assayed by quantifying luciferase levels at 24 hours p.i. (F). Data are represented as mean±SEM of three experiments. (G-H) IC50 of HPV16 infectivity inhibition by MMIP inhibitors batimastat and mariniastat. HaCaT cells incubated with serial dilutions of batimastat or marimastat in CM, for one hour before incubation with 100 viral genome equivalents (vge)/cell HPV16, one hour at 4° C. After washing away unbound virus, cells were incubated for 24 hours at 37° C. in the presence of inhibitors. HPV16 infection was measured with luciferase assay. Data are represented as mean±SEM of 3 experiments.
(§1) FIG. 7. […] (A) Relative HPV16 infection of HaCaT cells in the presence of specific GFR and protein tyrosine kinase inhibitors. […] Cells were exposed to HPV16 PsV at 100 vge/cell for one hour at 4° C., then washed extensively and shifted to 37° C. in the presence of the indicated inhibitor in CM for 24 hours at which time they were analyzed for luciferase expression. Data are represented as mean±SEM of three experiments. (B-C) EGFR knockdown was accomplished using siRNA to EGFR and the percent of EGFR protein remaining in EGFR-siRNA transfected HaCaT cells was determined by immunoblot and compared by densitometry to EGFR levels in cells transfected with a negative control siRNA at 48 hours post transfection. Four separate transfections were analyzed (B) and HPV16 PsV infection levels were measured at 24 hours post infection (48 hours post transfection) in each (C). Error bars represent the average of triplicate luciferase readings from the four transfections. (D) Cells were pre-treated four hours with 100 μm monastrol, pre-treated with monastrol for four hours plus PD168393 for duration, or pre-treated with PD168393 for four hours plus monastrol for duration. […] HaCaT cells starved in SFM (four hours) were exposed to HPV16 in CM (positive control) or SFM. After washing away unbound virus, cells were incubated for 24 hours in CM, Ty (Tyrode's buffer containing 0.05% BSA), SFM, syndecan-1 depleted CM (IP-syd), or EGF-depleted CM (IP-EGF). Infection was quantified by luciferase assay 24 hours post shift to 37° C. Data are represented as mean SEM of three experiments. […] HaCaT cells starved in SFM were exposed to HPV16 in SFM for one hour at 4° C. After washing away unbound virus, cells were incubated for 24 hours in. SFM, SFM containing GF, or in CM. Infections were quantified by luciferase assay; bars represented the mean SEM of three individual experiments. (G). To investigate if infection inhibition by the various agents used in FIG. 7A,D,E could be attributed to cell cycle changes, we used identical conditions and timing of inhibitor treatment on HaCaT cells. We then stained with propidium iodide and examined the cell cycle using flow cytometry. The fractions of cells in G1 (1n), S (intermediate), and G2/M (2n) phases were expressed as percentages of the total.

HaCaT cells = assay: Cell cycle analysis by propidium iodide flow cytometry; assay type: cell-based, human; settings: HaCaT cells in CM infected with HPV16, same inhibitor conditions as infection assays
Method: as §1, with “To investigate if infection inhibition by the various agents used in FIG. 7A,D,E could be attributed to cell cycle changes, we used identical conditions and timing of inhibitor treatment on HaCaT cells. We then stained with propidium iodide and examined the cell cycle using flow cytometry.” left out

HPV16 [3] = assay: HPV16 release from HaCaT cells into media, L1 immunoblot; assay type: cell-based, human papillomavirus; settings: CM, MMP inhibitor, FIG. 2E
Method: FIG. 2. HPV16 and syndecan-1 release from the HaCaT cell plasma membrane is MMP dependent. (A, B) Immunoblot for syndecan-1 (polyclonal syndecan-1 Ab) after 24 hours at 37° C. in CM (A) or post starvation in SFM and after six hours at 37° C. in Tyrode's Buffer (B); immunoblot for HPV16 L1 released into CM post virus binding for indicated times (C) or 24 hours (E). (D) Gelatin zymography showing protease activity present in HaCaT cell CM alone or with binding of HPV16. (E-F) Effect of MMP inhibitors batimistat (BM) or marimastat (MM) at the indicated concentrations on HPV16 release into media as in panel C and densitometric quantification with AlphaEaseFC software (E) and relative infection levels (F). Cells were untreated (U) or pre-treated with BM or MM for one hour, then exposed to HPV16 PsV in the presence of inhibitors in CM. Infection was assayed by quantifying luciferase levels at 24 hours p.i. (F). Data are represented as mean±SEM of three experiments. […] HPV16 infection was measured with luciferase assay. […]
HaCaT cells were incubated with 200 vge/cell of HPV PsVs for 1 h at 4° C., washed three ties with media and incubated at 37° C. for various times before harvesting the experimental media. […] The eluted fractions were analyzed by SDS-PAGE followed by immunoblotting for HPV16 L1, proteoglycans and growth factors. […]

COc1cc2ncnc(Nc3cccc(Cl)c3)c2cc1OC [AG1478]
rapid phosphorylation of the target GFR and downstream p-ERK1/2 induced by GFs or HPV16 [1]: completely abrogating signaling

C=CC(=O)Nc1ccc2ncnc(Nc3cccc(Br)c3)c2c1 [PD168393]
rapid phosphorylation of the target GFR and downstream p-ERK1/2 induced by GFs or HPV16 [1]: diminished | infection inhibition when PD168393 treatment was added with monastrol (HPV16 [2]; HaCaT, 100 μM monastrol plus PD168393, FIG. 7D): ≈ 70% | cell cycle distribution (G1, S, G2/M) versus no treatment (HaCaT cells): relatively similar

CCN(CC)CCCCNc1ncc2cc(-c3cc(OC)cc(OC)c3)c(NC(=O)NC(C)(C)C)nc2n1 [PD173074]
block of HPV16 infection / reduction of infectivity (HPV16 [2]): 35% | cell cycle distribution (G1, S, G2/M) versus no treatment (HaCaT cells): relatively similar

CNC(=O)[C@H](Cc1ccccc1)NC(=O)[C@H](CC(C)C)[C@H](CSc1cccs1)C(=O)NO [batimastat]
visible toxicity in dose-response analysis (HPV16 [2]): absence of visible toxicity | IC50 (HPV16 [2]): 400 nM

O=c1c(-c2ccc(O)cc2)coc2cc(O)ccc12 [daidzein]
rapid phosphorylation of the target GFR and downstream p-ERK1/2 induced by GFs or HPV16 [1]: no inhibitory effect

O=c1c(-c2ccc(O)cc2)coc2cc(O)cc(O)c12 [genistein]
rapid phosphorylation of the target GFR and downstream p-ERK1/2 induced by GFs or HPV16 [1]: diminished | block of HPV16 infection / reduction of infectivity (HPV16 [2]): almost completely blocked infection

CNC(=O)[C@@H](NC(=O)[C@H](CC(C)C)[C@H](O)C(=O)NO)C(C)(C)C [marimastat]
HPV16 infection of HaCaT cells (in words) (HPV16 [2]; CM, luciferase 24 hours p.i.): efficiently reduced HPV16 infection | infection inhibition under cell cycle assay conditions (HPV16 [2]; HaCaT cells grown in CM and infected with HPV16): ~90% | visible toxicity in dose-response analysis (HPV16 [2]): absence of visible toxicity | IC50 (HPV16 [2]): 1000 nM | release of HPV16 from cells (HPV16 [3]): effectively prevented the release | cell cycle distribution (G1, S, G2/M) versus no treatment (HaCaT cells): relatively similar

EGF: epidermal growth factor
restoration of HPV16 infectivity in SFM by added factor (HPV16 [2]): fully restore infection levels

albumin
restoration of HPV16 infectivity in SFM by added factor (HPV16 [2]): did not enhance infectivity
